Results: US20240016946A1, “DRUG-LOADED MACROMOLECULE AND PREPARATION METHOD THEREFOR” (SHANGHAI SENHUI MEDICINE CO., LTD., priority 2020, published 2024)
Several values for one entry are separate records, joined by “and”; a condition that tells them apart may be missing. Identical values can stand only once.

What was measured:
platelet (PLT) = experiment: Effect of single intravenous injection on platelet count in beagle dogs (Test Example 5); assay type: in vivo
Procedure: Method of administration: the weight was measured and the dosing amount was calculated based on the weight; the administration regimen is shown in Table 13 below. The drugs were slowly administered by intravenous injection. Blood was collected from the jugular vein or by other suitable means, about 1 mL per sample.

[1] = Pharmacokinetic study, single intravenous injection to rats (Test Example 1); assay type: in vivo, SD rats
Procedure: • (1) Preparation of docetaxel: commercially available docetaxel injection (0.5 mL:20 mg) was diluted to 4 mg/mL with normal saline; • (2) Preparation of other test compounds: the compounds were dissolved in DMSO with a final concentration of 5%, and the solutions were diluted to 4 mg/mL with normal saline.
Female SD rats, weighing 160-180 g, 6 weeks old, SPF
Plasma samples were separated, and the esterase inhibitor DDVP was added. The samples were stored at −80° C. and tested for docetaxel level (N=3).

[2] = Pharmacokinetic study, single intravenous injection to beagle dogs, docetaxel macromolecules (Test Example 2); assay type: in vivo; conditions: single IV 3 mg/kg, free docetaxel in plasma, mean (1 male + 1 female)
Procedure: Docetaxel (84 mg/vial, commercially available) was dissolved in 5% (final volume) DMSO+30% PEG300+5% Tween 80+60% deionized water to obtain 0.6 mg/mL formulations for intravenous injection.
Beagle dogs, non-naïve, sourced from Medicilon: 999M-004.
Method of administration: the weight was measured and the dosing amount was calculated based on the weight. The drugs were slowly administered by intravenous injection. Blood was collected from the jugular vein or by other suitable means, about 1 mL per sample. Plasma samples were collected before administration and at different time points after administration and tested for free docetaxel level in plasma. For the docetaxel group, collection was performed before administration and at 0.083 h, 0.5 h, 1 h, 2 h, 4 h, 6 h, 8 h and 24 h after administration.

[3] = tested on: human lung cancer cell A549; experiment: Antitumor effect in subcutaneous tumor graft model of human lung cancer cell A549 (Test Example 3); assay type: in vivo, BALB/C nude mice; conditions: for Tumor volume: i.v. QW × 4 doses, docetaxel 20, 1-Z00 20, 1-Z00-J 10 mg/kg
Procedure: Samples are prepared according to Table 5 below.
BALB/C nude mice, female, 6-7 week old (the age when tumor cell inoculation was performed), weighing 16.5-22.6 g, purchased from GemPharmatech Co., Ltd., certificate No. 320727210100243463. Housing environment: SPF.
A549 cells (National Collection of Authenticated Cell Cultures/Cell Bank of Shanghai Institutes for Biological Sciences (cellbank.org.cn, SIBS)) were cultured in an F12K medium (Gibco) containing 10% fetal bovine serum. Cells were collected when growing at the exponential phase and resuspended in PBS to a suitable concentration for use in subcutaneous tumor inoculation in mice.
5×10^6 A549 cells were subcutaneously inoculated into the right side of female mice (inoculation volume: 0.1 mL/mouse). The day of inoculation was defined as day 0. When the mean tumor volume was 142.96 mm^3 (on day 13 after cell inoculation), the mice were randomly grouped according to tumor size as shown in Table 6 below (dosing volume: 10 μL/g).
After tumor inoculation, routine monitoring items included the effect of tumor growth and treatment on the normal behavior of animals, including activity, food intake and water intake, weight gain or loss (body weight was measured twice a week), abnormalities in eyes, hair, etc. Clinical symptoms observed during the experiment were all recorded in the raw data. Tumor volume calculation formula: tumor volume (mm^3)=½×(a×b^2) (where a represents long diameter and b represents short diameter). In the experiment, data collection, including measurement of tumors' long and short diameters and animals' body weight, was performed using StudyDirector™ (version: 3.1.399.19; supplier: Studylog System, Inc., S. San Francisco, CA, USA) software. Raw data measured by scales and vernier calipers were directly imported into the software. Any changes in the data were recorded in the software.
When the body weight of an individual animal decreased by >20%, it was euthanized according to animal welfare.
Relative tumor proliferation rate, T/C (%), refers to the percentage value of the relative tumor volume or tumor weight of the treatment group and the control group at a certain time point. The calculation formula is: T/C %=TRTV/CRTV×100% (TRTV: mean RTV of treatment group; CRTV: mean RTV of control group; RTV=Vt/V0, V0 is the tumor volume of the animal at the time of grouping, and Vt is the tumor volume of the animal after treatment).
All the results are expressed as mean tumor volume±SEM (standard error of the mean). The best point of drug treatment (usually after the last administration) was selected for statistical analysis between different groups. A two-way ANOVA was used to determine whether there was a significant difference in tumor volume between a treatment group and the control group. p<0.05 indicates a significant difference. Statistical analysis and graphing were both performed in the R language environment (version 3.3.1). All tests were two-tailed unless otherwise specified. A p value less than 0.05 was considered statistically significant.

[4] = Hematological analysis (complete blood count) in the A549 subcutaneous tumor graft model (Test Example 3)
Procedure: After the last administration, plasma was collected at the time points designated in Table 7 (EDTA anticoagulant tubes were used (the esterase inhibitor DDVP was added at the time of blood collection)). After plasma collection at the last time point was complete, the mice were euthanized, and tumors were collected, snap frozen and stored.

[5] = female SD rats, single IV 10 mg/kg, docetaxel level in plasma, N=3
[6] = rat, female SD rats, single IV 10 mg/kg, docetaxel level in plasma, N=3
[7] = day 21 after administration began, docetaxel 20, 1-Z00 20, 1-Z00-J 10 mg/kg i.v. QW × 4
[8] = A549 tumor-bearing mice after last administration, docetaxel 20, 1-Z00 20, 1-Z00-J 10 mg/kg i.v., mean ± standard deviation

O=C(NS(=O)(=O)c1ccc(N[C@@H](CSc2ccccc2)C[C@@H]2CCCN2CCO)c(S(=O)(=O)C(F)(F)F)c1)c1ccc(N2CCC([C@@H](O)c3ccccc3-c3ccc(Cl)cc3)CC2)cc1 [Compound 3]
Day 2 (24 h after administration) PLT mean value (platelet (PLT); beagle dogs, 24 h after single IV 3 mg/kg, mean): 34.00 10^9/L
Day 1 (before administration) PLT mean value (platelet (PLT); beagle dogs, before single IV 3 mg/kg (baseline), mean): 355.00 10^9/L
Difference (%) between PLT count in dogs at 24 h after administration and that before administration (platelet (PLT); beagle dogs, single IV 3 mg/kg): −90.42%
mortality (animals died) (platelet (PLT); beagle dogs, single IV 3 mg/kg, 3 dogs with compound 3, 2 dogs per dendrimer): 2
Day 2 (24 h after administration) PLT (platelet (PLT); individual male beagle dog, 24 h after single IV 3 mg/kg): 34.00 10^9/L
Day 1 (before administration) PLT (platelet (PLT); individual male beagle dog, before single IV 3 mg/kg (baseline)): 355.00 10^9/L

CC(=O)O[C@@]12CO[C@@H]1C[C@H](O)[C@@]1(C)C(=O)[C@H](O)C3=C(C)[C@@H](OC(=O)[C@H](O)[C@@H](NC(=O)OC(C)(C)C)c4ccccc4)C[C@@](O)([C@@H](OC(=O)c4ccccc4)[C@H]21)C3(C)C [Docetaxel]
AUMC0-inf [1, 5]: 2663.5 h · h · ng · mL^−1
AUMC0-t [1, 5]: 1669.3 h · h · ng · mL^−1
Kel [1, 5]: 0.3 h⁻¹
MRTIV [1, 5]: 1.8 h
AUC(0-inf) [1, 6]: 1480 ng·h/mL
AUC(0-t) [1, 6]: 1400 ng·h/mL
C0 [1, 6]: 2840 ng/mL
Cmax [1, 6]: 1990 ng/mL
clearance [1, 6]: 116 mL/min/kg
half-life [1, 6]: 2.1 h
Vd ([1]; rat, female SD rats, single IV 10 mg/kg, docetaxel level in plasma, N=3, read-out: VdSS): 12.1 L/kg
sustained-release effect, exposure and clearance (conclusion in words) ([1]; rats, IV 10 mg/kg): rapid plasma clearance and low exposure
AUC(0-inf) ([2]; both sexes, dog): 2040 ng·h/mL
AUC(0-t) ([2]; both sexes, dog): 1890 ng·h/mL
clearance ([2]; both sexes, dog): 24.6 mL/min/kg
half-life ([2]; both sexes, dog): 13.5 h
Vd ([2]; both sexes, dog, read-out: Vdss): 7.39 L/kg
AUMC0-inf [2]: 10234 h·h·ng·mL^−1
AUMC0-t [2]: 3854 h·h·ng·mL^−1
Kel [2]: 0.0515 h⁻¹
Mean residence time (MRT) [2]: 5.02 h
Tumor volume ([3]; day 0 after administration began (baseline at grouping), mean ± standard error): 142.49 ± 6.17 mm^3
Tumor volume ([3]; day 3 after administration began, mean ± standard error): 187.27 ± 18.12 mm^3
Tumor volume ([3]; day 7 after administration began, mean ± standard error): 294.09 ± 32.19 mm^3
Tumor volume ([3]; day 10 after administration began, mean ± standard error): 362.73 ± 41.13 mm^3
Tumor volume ([3]; day 14 after administration began, mean ± standard error): 460.59 ± 68.72 mm^3
Tumor volume ([3]; day 17 after administration began, mean ± standard error): 502.25 ± 84.97 mm^3
T/C (relative tumor proliferation rate) [3, 7]: 33.76%
TGI (relative tumor inhibition) [3, 7]: 66.24%
Relative tumor volume ([3]; day 21 after administration began, docetaxel 20, 1-Z00 20, 1-Z00-J 10 mg/kg i.v. QW × 4, mean ± standard error): 3.87 ± 0.61
Tumor volume ([3]; day 21 after administration began, mean ± standard error): 564.93 mm^3 and 564.93 ± 108.61 mm^3
decrease of white blood cells, lymphocytes and mononuclear cells compared to the vehicle control group (factor) ([4]; 20 mg/kg i.v.): 2-3
Eosinophil EO# [4, 8]: 0.02 ± 0.02 10^9/L
Lymphocyte LYMPH# [4, 8]: 1.58 ± 0.39 10^9/L
Mononuclear cell MONO# [4, 8]: 0.11 ± 0.02 10^9/L
Neutrophil NEUT# [4, 8]: 0.81 ± 0.47 10^9/L
White blood cell count WBC [4, 8]: 2.52 ± 0.08 10^9/L
